Measurements: US8287923B2, “Compositions and methods for treating immune disorders” (priority 2005, dated 2012)

Tested on: NHEK
Assay: Affymetrix gene array analysis, inflammatory gene expression
Assay type: cell-based, human
Settings: 100 μM, vs time 0
Method: The gene array experiment was performed at the Core Facility of Genomics of the Medical College of Georgia, according to the instructions of the manufacturer (Affymetrix, Santa Clara, Calif.). Briefly, NHEK and OSC2 cells treated with 100 μM EGCG for different time period were extracted for total RNA, the RNA was processed for probes and hybridized with a cDNA microarray (HuG133A, Affymetrix) which represents 22,283 human series. DNA chips were read with a Hewlett-Packard GeneArray Scanner at a resolution of […] and were analyzed with the GeneSpring software (Silicon Genetics, Redwood City, Calif.). Details of this analysis will be published elsewhere (Hsu et al., manuscript in preparation).

Compound: O=C(O[C@@H]1Cc2c(O)cc(O)cc2O[C@@H]1c1cc(O)c(O)c(O)c1)c1cc(O)c(O)c(O)c1 [EGCG, (−)-epigallocatechin-3-gallate]
- BMP2 (205290_s_at) expression (0.5 h): 0.32 fold
- IFNGR1 (202727_s_at) expression (0.5 h): 0.79 fold
- IL1A (210118_s_at) expression (0.5 h): 0.66 fold
- IL1B (39402_at) expression (0.5 h): 0.29 fold
- IL1B (205067_at) expression (0.5 h): 0.29 fold
- IL6R (205945_at) expression (0.5 h): 0.48 fold
- IL6ST (21100_s_at) expression (0.5 h): 0.34 fold
- IL8 (202859_x_at) expression (0.5 h): 6.02 fold
- IL10RB (209575_at) expression (0.5 h): 0.43 fold
- IL13RA2 (206172_at) expression (0.5 h): 0.33 fold
- IL18 (206295_at) expression (0.5 h): 0.33 fold
- TNFSF15 (221085_at) expression (0.5 h): 0.52 fold
- p38 (21156_x_at) expression (0.5 h): 2.32 fold
- p38 (202530_at) expression (0.5 h): 2.51 fold
- BMP2 (205290_s_at) expression (2 h): 0.96 fold
- IFNGR1 (202727_s_at) expression (2 h): 0.91 fold
- IL1A (210118_s_at) expression (2 h): 0.42 fold
- IL1B (39402_at) expression (2 h): 0.48 fold
- IL1B (205067_at) expression (2 h): 0.58 fold
- IL6R (205945_at) expression (2 h): 0.69 fold
- IL6ST (21100_s_at) expression (2 h): 0.28 fold
- IL8 (202859_x_at) expression (2 h): 9.55 fold
- IL10RB (209575_at) expression (2 h): 0.63 fold
- IL13RA2 (206172_at) expression (2 h): 0.74 fold
- IL18 (206295_at) expression (2 h): 0.65 fold
- TNFSF15 (221085_at) expression (2 h): 1.56 fold
- p38 (21156_x_at) expression (2 h): 1.46 fold
- p38 (202530_at) expression (2 h): 1.09 fold
- BMP2 (205290_s_at) expression (6 h): 0.72 fold
- IFNGR1 (202727_s_at) expression (6 h): 0.45 fold
- IL1A (210118_s_at) expression (6 h): 0.54 fold
- IL1B (39402_at) expression (6 h): 0.40 fold
- IL1B (205067_at) expression (6 h): 0.49 fold
- IL6R (205945_at) expression (6 h): 0.31 fold
- IL6ST (21100_s_at) expression (6 h): 0.99 fold
- IL8 (202859_x_at) expression (6 h): 9.99 fold
- IL10RB (209575_at) expression (6 h): 0.76 fold
- IL13RA2 (206172_at) expression (6 h): 0.81 fold
- IL18 (206295_at) expression (6 h): 0.70 fold
- TNFSF15 (221085_at) expression (6 h): 0.67 fold
- p38 (21156_x_at) expression (6 h): 1.62 fold
- p38 (202530_at) expression (6 h): 0.63 fold
- BMP2 (205290_s_at) expression (24 h): 0.44 fold
- IFNGR1 (202727_s_at) expression (24 h): 0.92 fold
- IL1A (210118_s_at) expression (24 h): 0.27 fold
- IL1B (39402_at) expression (24 h): 0.27 fold
- IL1B (205067_at) expression (24 h): 0.26 fold
- IL6R (205945_at) expression (24 h): 0.69 fold
- IL6ST (21100_s_at) expression (24 h): 0.61 fold
- IL8 (202859_x_at) expression (24 h): 9.93 fold
- IL10RB (209575_at) expression (24 h): 0.38 fold
- IL13RA2 (206172_at) expression (24 h): 0.55 fold
- IL18 (206295_at) expression (24 h): 0.65 fold
- TNFSF15 (221085_at) expression (24 h): 0.63 fold
- p38 (21156_x_at) expression (24 h): 2.51 fold
- p38 (202530_at) expression (24 h): 1.17 fold
